According to patent US20130324412A1, “N-ALKOXYAMIDES OF 6-(SUBSTITUTED PHENYL)-4-AMINOPICOLINATES AND 2-(SUBSTITUTED PHENYL)-6-AMINO-4-PYRIMIDINECARBOXYLATES AND THEIR USE AS SELECTIVE HERBICIDES FOR CROPS” (DOW AGROSCIENCES LLC, priority 2009, published 2013):

Assays:
Format in all cases: in vivo
[1] = system: purple deadnettle (Lamium purpureum); test: Postemergence herbicidal activity in oilseed rape (canola), purple deadnettle; parameters: unit not given here; conditions: oilseed rape (canola) test, visual rating after 21 d, probit analysis, dose to kill or control 80 percent
Description: (§1) Seeds of oilseed rape (canola) and the desired weed species were planted in Sun Gro MetroMix® 360 planting mixture, which typically has a pH of 6.0 to 6.8 and an organic matter content of about 30 percent, in plastic pots with a surface area of 95 cm^2. When required to ensure good germination and healthy plants, a fungicide treatment and/or other chemical or physical treatment was applied. The plants were grown for 15-28 d in a greenhouse with an approximate 15-h photoperiod which was maintained at about 23-29° C. during the day and 22-28° C. during the night. Nutrients and water were added on a regular basis and supplemental lighting was provided with overhead metal halide 1000-Watt lamps as necessary. The oilseed rape (canola) plants were utilized for testing when they reached the third or fourth true leaf stage. The weed species were utilized at the fourth true leaf stage.
(§2) A weighed amount, determined by the highest rate to be tested, of each test compound was dissolved in 4 mL of a 97:3 v/v mixture of acetone and DMSO to obtain concentrated stock solutions. […] The concentrated stock solutions obtained were diluted with 20 mL of an aqueous mixture containing acetone, water and Agri-Dex crop oil concentrate, in a 16.7:82.1:1.25 v/v ratio to obtain spray solutions containing the highest application rates. Additional application rates were obtained by serial dilution of 12 mL of the high rate solution into a solution containing 2 mL of 97:3 v/v mixture of acetone and DMSO and 10 mL of an aqueous mixture containing acetone, water and Agri-Dex crop oil concentrate, in a 16.7:82.1:1.25 v/v ratio to obtain ½×, ¼×, ⅛× and 1/16× rates of the high rate. Compound requirements are based upon a 12 mL application volume at a rate of 187 L/ha. Formulated compounds were applied to the plant material with an overhead Mandel track sprayer equipped with 8002E nozzles calibrated to deliver 187 L/ha over an application area of 0.503 m^2 at a spray height of 18 inches (43 cm) above the average plant canopy height. Control plants were sprayed in the same manner with the solvent blank.
(§3) The treated plants and control plants were placed in a greenhouse as described above and watered by sub-irrigation to prevent wash-off of the test compounds. After 21 d, the condition of the test plants as compared with that of the untreated plants was determined visually and scored on a scale of 0 to 100 percent where 0 corresponds to no injury and 100 corresponds to complete kill.
(§4) By applying the well-accepted probit analysis as described by J. Berkson in Journal of the American Statistical Society 1953, 48, 565, and by D. Finney in “Probit Analysis” Cambridge University Press (1952), the above data can be used to calculate GR20 and GR80 values, which are defined as growth reduction factors that correspond to the effective dose of herbicide required to kill or control 20 percent or 80 percent, respectively, of a target plant.

[2] = system: velvetleaf (Abutilon theophrasti); test: General postemergence herbicidal activity, velvetleaf; conditions: post-emergence, 336 h, 70 g ai/ha, postemergence, after 14 d, 0 = no injury, 100 = complete kill, read-out: ABUTH % Visual Injury
Outline: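 Greenhouse plants at first to second true leaf stage sprayed overhead at 187 L/ha in acetone/DMSO with crop oil concentrate and surfactant, at a high rate plus ½× to 1/16× serial dilutions. Injury rated visually after 14 d against solvent-blank controls, 0 (none) to 100% (complete kill).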

[3] = system: sugar beet (Beta vulgaris); test: Postemergence herbicidal activity in sugar beet, crop; parameters: unit not given here; conditions: visual rating after 21 d, probit analysis, dose to kill or control 20 percent
Description: as §1, with “sugar beet” for “oilseed rape (canola)”
as §2, §3, §4

[4] = system: purple deadnettle (Lamium purpureum); test: Postemergence herbicidal activity in sugar beet, purple deadnettle; parameters: unit not given here; conditions: sugar beet test, visual rating after 21 d, probit analysis, dose to kill or control 80 percent
Description: as §1, with “sugar beet” for “oilseed rape (canola)”
as §2
The treated plants and control plants were placed in a greenhouse as described above and watered by sub-irrigation to prevent wash-off of the test compounds. After 21 d, the condition of the test plants as compared with that of the untreated plants was determined visually and scored on a scale of 0 to 100 percent where 0 corresponds to no injury and 100 corresponds to complete kill. […]

[5] = system: lambsquarters (Chenopodium album); test: Postemergence herbicidal activity in sugar beet, lambsquarters; parameters: unit not given here; conditions: sugar beet test, visual rating after 21 d, probit analysis, dose to kill or control 80 percent
Description: as §1, with “sugar beet” for “oilseed rape (canola)”
as §2, §3, §4

SMILES: COc1c(Cl)ccc(-c2cc(N)c(Cl)c(C(=O)NOCC(C)C)n2)c1F [Compound 1, 4-amino-3-chloro-6-(4-chloro-2-fluoro-3-methoxyphenyl)-N-(2-methylpropoxy)picolinamide]
- LAMPU GR80 [1]: <4.38
- pest or weed control at 70 g/ha [2]: 100%

SMILES: CONC(=O)c1nc(-c2ccc(Cl)c(OC)c2F)cc(N)c1Cl [Compound 2, 4-Amino-3-chloro-6-(4-chloro-2-fluoro-3-methoxyphenyl)-N-methoxypicolinamide]
- LAMPU GR80 [1]: <4.38
- pest or weed control at 70 g/ha [2]: 100%
- BEAVA GR20 [3]: >35
- LAMPU GR80 [4]: <4.38
- CHEAL GR80 [5]: 21.5
